Assay results: US10093683B2, “Factor XIa inhibitors” (Merck Sharp & Dohme Corp., priority 2014, dated 2018)

Biological target: human Factor XIa (Homo sapiens (Human), UniProt P03951)
Experiment: Factor XIa Assay
Type: biochemical
Settings: purified human Factor XIa 40 pM, Z-Gly-Pro-Arg-AFC 100 μM, pH 7.4; read-out: FXIa Ki
Protocol: The effectiveness of a compound of the present invention as an inhibitor of Coagulation Factor XIa can be determined using a relevant purified serine protease, and an appropriate synthetic substrate. The rate of hydrolysis of the chromogenic or fluorogenic substrate by the relevant serine protease was measured both in the absence and presence of compounds of the present invention. Assays were conducted at room temperature or at 37° C. […] A decrease in the rate of fluorescence change in the presence of inhibitor is indicative of enzyme inhibition. Such methods are known to one skilled in the art. The results of this assay are expressed as the inhibitory constant, Ki.
Factor XIa determinations were made in 50 mM HEPES buffer at pH 7.4 containing 150 mM NaCl, 5 mM CaCl2, and 0.1% PEG 8000 (polyethylene glycol; JT Baker or Fisher Scientific). Determinations were made using purified human Factor XIa at a final concentration of 40 pM (Sekisui Diagnostics) and he synthetic substrate, Z-Gly-Pro-Arg-AFC, TFA salt (Sigma #C0980) at a concentration of 100 μM.
Times required to achieve equilibration between enzyme and inhibitor were determined in control experiments. Initial velocities of product formation in the absence (Vo) or presence of inhibitor (Vi) were measured. Assuming competitive inhibition, and that unity is negligible compared Km/[S], [I]/e, and [I]/e (where [S], [I], and e respectively represent the total concentrations, of substrate, inhibitor and enzyme), the equilibrium constant (Ki) for dissociation of the inhibitor from the enzyme can be obtained from the dependence of Vo/Vi on [I] shown in the following equation.

Chain of human Factor XIa (P03951 388-625): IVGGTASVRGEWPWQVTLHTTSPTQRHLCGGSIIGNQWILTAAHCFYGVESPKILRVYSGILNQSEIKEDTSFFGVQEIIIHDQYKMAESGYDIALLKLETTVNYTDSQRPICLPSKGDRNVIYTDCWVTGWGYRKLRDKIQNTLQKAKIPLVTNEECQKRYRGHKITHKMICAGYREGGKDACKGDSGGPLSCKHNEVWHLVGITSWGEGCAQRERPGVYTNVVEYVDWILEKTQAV
Chain of human Factor XIa (P03951 19-387 partner): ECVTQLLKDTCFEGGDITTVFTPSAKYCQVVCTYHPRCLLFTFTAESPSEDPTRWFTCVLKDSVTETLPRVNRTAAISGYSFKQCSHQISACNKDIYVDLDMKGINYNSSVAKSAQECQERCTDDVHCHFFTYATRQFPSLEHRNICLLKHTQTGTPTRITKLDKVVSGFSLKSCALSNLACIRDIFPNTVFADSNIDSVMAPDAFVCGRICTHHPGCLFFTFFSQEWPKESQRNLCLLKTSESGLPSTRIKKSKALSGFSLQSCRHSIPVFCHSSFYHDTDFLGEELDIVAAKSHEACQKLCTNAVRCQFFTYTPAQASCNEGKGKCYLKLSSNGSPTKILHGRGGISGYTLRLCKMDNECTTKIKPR

Ki [µM]	SMILES
8.44	COC(=O)Nc1ccc(C(=O)N[C@@H](Cc2ccccc2)C(=O)N2CCC[C@@]3(C2)OC(=O)Nc2ccc(C(F)(F)F)cc23)cc1 [Example 10, methyl (4-(((S)-1-oxo-1-((R)-2-oxo-6-(trifluoromethyl)-1,2-dihydrospiro[benzo[d][1,3]oxazine-4,3′-piperidin]-1′-yl)-3-phenylpropan-2-yl)carbamoyl)phenyl)carbamate]
0.051	COC(=O)Nc1ccc(C(=O)N[C@@H](Cc2ccccc2)C(=O)N2CCC[C@@]3(C2)OC(=O)Nc2cc(F)c(Cl)c(F)c23)cc1 [Example 11, methyl (4-(((S)-1-((R)-6-chloro-5,7-difluoro-2-oxo-1,2-dihydrospiro[benzo[d][1,3]oxazine-4,3′-piperidin]-1′-yl)-1-oxo-3-phenylpropan-2-yl)carbamoyl)phenyl)carbamate]
0.109	COC(=O)Nc1ccc(C(=O)N[C@@H](Cc2ccccc2)C(=O)N2CCC[C@@]3(C2)OC(=O)Nc2c(F)cc(Cl)cc23)cc1 [Example 12, methyl (4-(((S)-1-((R)-6-chloro-8-fluoro-2-oxo-1,2-dihydrospiro[benzo[d][1,3]oxazine-4,3′-piperidin]-1′-yl)-1-oxo-3-phenylpropan-2-yl)carbamoyl)phenyl)carbamate]
5	COC(=O)Nc1ccc(C(=O)N[C@@H](Cc2ccccc2)C(=O)N2CC[C@]3(C2)OC(=O)Nc2ccc(C)cc23)cc1 [Example 14a, methyl (4-(((S)-1-((S)-6-methyl-2-oxo-1,2-dihydrospiro[benzo[d][1,3]oxazine-4,3′-pyrrolidin]-1′-yl)-1-oxo-3-phenylpropan-2-yl)carbamoyl)phenyl)carbamate]
0.0374	COC(=O)Nc1ccc(C(=O)N[C@@H](Cc2ccccc2)C(=O)N2CCC[C@@]3(C2)OC(=O)Nc2ccc(C4CC4)c(F)c23)cc1 [Example 17, methyl (4-(((S)-1-((R)-6-cyclopropyl-5-fluoro-2-oxo-1,2-dihydrospiro[benzo[d][1,3]oxazine-4,3′-piperidin]-1′-yl)-1-oxo-3-phenylpropan-2-yl)carbamoyl)phenyl)carbamate]
5	COC(=O)Nc1ccc(C(=O)N[C@@H](Cc2ccccc2)C(=O)N2CCC3(CC(=O)Nc4ccc(Cl)cc43)C2)cc1 (stereo partly drawn) [Example 18, methyl (4-(((2S)-1-(6′-chloro-2′-oxo-2′,3′-dihydro-1′H-spiro[pyrrolidine-3,4′-quinolin]-1-yl)-1-oxo-3-phenylpropan-2-yl)carbamoyl)phenyl)carbamate]
0.726	COC(=O)Nc1ccc(C(=O)N[C@@H](CC2CC2)C(=O)N2CC[C@]3(C2)OC(=O)Nc2ccc(Cl)cc23)cc1 [Example 21a, methyl (4-(((S)-1-((S)-6-chloro-2-oxo-1,2-dihydrospiro[benzo[d][1,3]oxazine-4,3′-pyrrolidin]-1′-yl)-3-cyclopropyl-1-oxopropan-2-yl)carbamoyl)phenyl)carbamate]
0.0312	COC(=O)Nc1ccc(C(=O)N[C@@H](CC2CC2)C(=O)N2CC[C@@]3(C2)OC(=O)Nc2ccc(Cl)cc23)cc1 [Example 21b, methyl (4-(((S)-1-((R)-6-chloro-2-oxo-1,2-dihydrospiro[benzo[d][1,3]oxazine-4,3′-pyrrolidin]-1′-yl)-3-cyclopropyl-1-oxopropan-2-yl)carbamoyl)phenyl)carbamate]
≥ 5	COC(=O)Nc1ccc(C(=O)N[C@@](C)(Cc2ccccc2)C(=O)N2CCC3(C2)OC(=O)Nc2ccc(Cl)cc23)cc1 (stereo partly drawn) [Example 24, methyl (4-(((2S)-1-(6-chloro-2-oxo-1,2-dihydrospiro[benzo[d][1,3]oxazine-4,3′-pyrrolidin]-1′-yl)-2-methyl-1-oxo-3-phenylpropan-2-yl)carbamoyl)phenyl)carbamate]
≥ 5	COC(=O)Nc1ccc(C(=O)N[C@@]2(C(=O)N3CCC4(C3)OC(=O)Nc3ccc(Cl)cc34)C[C@@H]2c2ccccc2)cc1 (stereo partly drawn) [Example 25, methyl (4-(((1S,2R)-1-(6-chloro-2-oxo-1,2-dihydrospiro[benzo[d][1,3]oxazine-4,3′-pyrrolidin]-1′-ylcarbonyl)-2-phenylcyclopropyl)carbamoyl)phenyl)carbamate]
≥ 5	COC(=O)Nc1ccc(C(=O)N[C@H](C(=O)N2CCC3(C2)OC(=O)Nc2ccc(Cl)cc23)c2ccccc2)cc1 (stereo partly drawn) [Example 29, methyl (4-(((1S)-2-(6-chloro-2-oxo-1,2-dihydrospiro[benzo[d][1,3]oxazine-4,3′-pyrrolidin]-1′-yl)-2-oxo-1-phenylethyl)carbamoyl)phenyl)carbamate]
4.31	COC(=O)Nc1ccc(C(=O)N[C@H](C(=O)N2CCC3(C2)OC(=O)Nc2ccc(Cl)cc23)[C@H](C)c2ccccc2)cc1 (stereo partly drawn) [Example 33, methyl (4-(((2S,3R)-1-(6-chloro-2-oxo-1,2-dihydrospiro[benzo[d][1,3]oxazine-4,3′-pyrrolidin]-1′-yl)-1-oxo-3-phenylbutan-2-yl)carbamoyl)phenyl)carbamate]
0.09	COC(=O)Nc1ccc(C(=O)N[C@@H](CC2CCCCC2)C(=O)N2CCC3(C2)OC(=O)Nc2ccc(Cl)cc23)cc1 (stereo partly drawn) [Example 34, methyl (4-(((2S)-1-(6-chloro-2-oxo-1,2-dihydrospiro[benzo[d][1,3]oxazine-4,3′-pyrrolidin]-1′-yl)-3-cyclohexyl-1-oxopropan-2-yl)carbamoyl)phenyl)carbamate]
0.0844	COC(=O)Nc1ccc(C(=O)N[C@@H](CCC(F)(F)F)C(=O)N2CCC[C@@]3(C2)OC(=O)Nc2ccc(Cl)c(F)c23)cc1 [Example 36, methyl (4-(((S)-1-((R)-6-chloro-5-fluoro-2-oxo-1,2-dihydrospiro[benzo[d][1,3]oxazine-4,3′-piperidin]-1′-yl)-5,5,5-trifluoro-1-oxopentan-2-yl)carbamoyl)phenyl)carbamate]
> 5	COC(=O)Nc1ccc(C(=O)NC[C@@H](Cc2ccccc2)C(=O)N2CCC3(C2)OC(=O)Nc2ccc(Cl)cc23)cc1 (stereo partly drawn) [Example 41, methyl (4-(((2R)-2-benzyl-3-(6-chloro-2-oxo-1,2-dihydrospiro[benzo[d][1,3]oxazine-4,3′-pyrrolidin]-1′-yl)-3-oxopropyl)carbamoyl)phenyl)carbamate]
0.0836	COC(=O)Nc1ccc(C(=O)NC(CC2CCS(=O)(=O)CC2)C(=O)N2CCC3(C2)OC(=O)Nc2ccc(Cl)cc23)cc1 (stereo not shown) [Example 42, methyl (4-((1-(6-chloro-2-oxo-1,2-dihydrospiro[benzo[d][1,3]oxazine-4,3′-pyrrolidin]-1′-yl)-3-(1,1-dioxidotetrahydro-2H-thiopyran-4-yl)-1-oxopropan-2-yl)carbamoyl)phenyl)carbamate]
0.00039	COC(=O)Nc1ccc(C(=O)N[C@@H](Cc2ccc(NS(C)(=O)=O)cc2)C(=O)N2CCC[C@@]3(C2)OC(=O)Nc2ccc(Cl)cc23)cc1 [Example 46, methyl (4-(((S)-1-((R)-6-chloro-2-oxo-1,2-dihydrospiro[benzo[d][1,3]oxazine-4,3′-piperidin]-1′-yl)-3-(4-(methylsulfonamido)phenyl)-1-oxopropan-2-yl)carbamoyl)phenyl)carbamate]
0.362	COC(=O)Nc1ccc(C(=O)N[C@H](CC(=O)N2CCC3(C2)OC(=O)Nc2ccc(Cl)cc23)Cc2ccccc2)cc1 (stereo partly drawn) [Example 49, methyl (4-(((2S)-4-(6-chloro-2-oxo-1,2-dihydrospiro[benzo[d][1,3]oxazine-4,3′-pyrrolidin]-1′-yl)-4-oxo-1-phenylbutan-2-yl)carbamoyl)phenyl)carbamate]
0.0557	COC(=O)Nc1ccc(C(=O)N[C@@H](CCCCO)C(=O)N2CCC3(C2)OC(=O)Nc2ccc(Cl)cc23)cc1 (stereo partly drawn) [Example 51, methyl (4-(((2S)-1-(6-chloro-2-oxo-1,2-dihydrospiro[benzo[d][1,3]oxazine-4,3′-pyrrolidin]-1′-yl)-6-hydroxy-1-oxohexan-2-yl)carbamoyl)phenyl)carbamate]
0.052	COC(=O)Nc1ccc(C(=O)N[C@@H](CCCCNC(=O)C(F)(F)F)C(=O)N2CCC[C@@]3(C2)OC(=O)Nc2ccc(Cl)cc23)cc1 [Example 54, methyl (4-(((S)-1-((R)-6-chloro-2-oxo-1,2-dihydrospiro[benzo[d][1,3]oxazine-4,3′-piperidin]-1′-yl)-1-oxo-6-(2,2,2-trifluoroacetamido)hexan-2-yl)carbamoyl)phenyl)carbamate]
0.0932	COC(=O)Nc1ccc(C(=O)N[C@@H](C)C(=O)N2CCC[C@@]3(C2)OC(=O)Nc2ccc(Cl)cc23)cc1 [Example 55, methyl (4-(((S)-1-((R)-6-chloro-2-oxo-1,2-dihydrospiro[benzo[d][1,3]oxazine-4,3′-piperidin]-1′-yl)-1-oxopropan-2-yl)carbamoyl)phenyl)carbamate]
0.102	COC(=O)Nc1ccc(C(=O)N[C@@H](CC[S+](C)[O-])C(=O)N2CCC[C@@]3(C2)OC(=O)Nc2ccc(Cl)cc23)cc1 (stereo partly drawn) [Example 56, methyl (4-(((2S)-1-((R)-6-chloro-2-oxo-1,2-dihydrospiro[benzo[d][1,3]oxazine-4,3′-piperidin]-1′-yl)-4-(methylsulfinyl)-1-oxobutan-2-yl)carbamoyl)phenyl)carbamate]
